From ChEMBL document CHEMBL1201862, “PubChem BioAssay data set” (2004)
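Dose response: 5 concentrations. Exposure: 48 h. Format: 96-well plates. Endpoint: linear interpolation; highest concentration if not reached. GI50 is the concentration that inhibits growth by half.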 The source made the active and inactive calls. Cut-off read from the data, not from the text of the source: active = GI50 up to about 1.1 µM and inactive = higher.

How the values were obtained:
Experiment in all cases: growth of human tumour cells (NCI), 48 h
HL-60 = tested on: HL-60
HCT-116 = tested on: HCT-116
Hs-578T = tested on: Hs-578T
DU-145 = tested on: DU-145
SNB-19 = tested on: SNB-19
T47D = tested on: T47D
COLO 205 = tested on: COLO 205
OVCAR-3 = tested on: OVCAR-3
HCT-15 = tested on: HCT-15
UACC-257 = tested on: UACC-257
MCF7 = tested on: MCF7
M14 = tested on: M14
TK-10 = tested on: TK-10
SF-295 = tested on: SF-295
786-0 = tested on: 786-0
K562 = tested on: K562
RXF 393 = tested on: RXF 393
CCRF-CEM = tested on: CCRF-CEM
NCI/ADR-RES = tested on: NCI/ADR-RES
NCI-H23 = tested on: NCI-H23

Row | SMILES | GI50 (HL-60) | GI50 (HCT-116) | GI50 (Hs-578T) | GI50 (DU-145) | GI50 (SNB-19) | GI50 (T47D) | GI50 (COLO 205) | GI50 (OVCAR-3) | GI50 (HCT-15) [µM] | GI50 (UACC-257) | GI50 (MCF7) | GI50 (M14) | GI50 (TK-10) | GI50 (SF-295) | GI50 (786-0) | GI50 (K562) | GI50 (RXF 393) | GI50 (CCRF-CEM) | GI50 (NCI/ADR-RES) | GI50 (NCI-H23)
1 | CC(C)(CN1CCCCC1)C(=O)/C=C/c1ccc(/C=C/C(=O)C(C)(C)CN2CCCCC2)cc1 | 0.116 µM (active) | 0.303 µM (active) | 0.42 µM (active) | 1.94 µM (inactive) | 1.35 µM (inactive) | 0.525 µM (active) | 0.152 µM (active) | 0.369 µM (active) | 0.204 | 1.05 µM (active) | 0.247 µM (active) | 0.908 µM (active) | 1.05 µM (active) | 0.661 µM (active) | 0.446 µM (active) | 0.103 µM (active) | 0.28 µM (active) | 0.0466 µM (active) | 0.393 µM (active) | 0.711 µM (active)
2 | O=C1C(CN2CCCCC2)CCC1CN1CCCCC1 (stereo not given) | 1.5 µM (inactive) | 24.5 µM (inactive) | > 51.3 µM (inactive) | > 88.5 µM (inactive) | > 100 µM (inactive) | 13.5 µM (inactive) | 14.7 µM (inactive) | 17.1 µM (inactive) | 20 | 30.3 µM (inactive) | 21.9 µM (inactive) | 15.5 µM (inactive) | 17.8 µM (inactive) | > 46.5 µM (inactive) | 19.5 µM (inactive) | 1.2 µM (inactive) | 14.8 µM (inactive) | 1.06 µM (active) | 37.4 µM (inactive) | 23.1 µM (inactive)
3 | O=C(c1ccccc1)c1cc[n+](C2=C([N-]S(=O)(=O)c3ccccc3)C(=O)c3ccccc3C2=O)cc1 | 2.15 µM (inactive) | 11.3 µM (inactive) | 3.66 µM (inactive) | 13.9 µM (inactive) | 13.8 µM (inactive) | 3.33 µM (inactive) | 13.7 µM (inactive) | 3.1 µM (inactive) | 14.4 | 11.6 µM (inactive) | 8.79 µM (inactive) | 11.1 µM (inactive) | 18.3 µM (inactive) | 11.8 µM (inactive) | 7.13 µM (inactive) | 2.65 µM (inactive) | 12.4 µM (inactive) | 2.1 µM (inactive) | 9.38 µM (inactive) | 3.12 µM (inactive)
4 | Oc1cc(-c2cccc(OC(F)(F)F)c2)nc2ccc(N3CCCC3)cc12 | < 0.0001 µM (active) | 0.000121 µM (active) | 0.01 µM (active) | 0.000316 µM (active) | 0.00018 µM (active) | 26.3 µM (inactive) | 0.00303 µM (active) | < 0.0001 µM (active) | 0.0004 | < 0.0001 µM (active) | 0.0337 µM (active) | 0.00012 µM (active) | 0.00457 µM (active) | < 0.0001 µM (active) | 0.00014 µM (active) | < 0.0001 µM (active) | 0.000116 µM (active) | 0.00012 µM (active) | 0.00016 µM (active) | 0.0191 µM (active)
5 | CC1CNC(c2ccc(CN3CCC(C4CCN(Cc5ccc(C6=NC(C)CN6)cc5)CC4)CC3)cc2)=N1 (stereo not given) | 36.1 µM (inactive) | 17.9 µM (inactive) | 18.6 µM (inactive) | 16.2 µM (inactive) | 26.1 µM (inactive) | 19.5 µM (inactive) | 18.6 µM (inactive) | 17.5 µM (inactive) | 27.5 | 24.2 µM (inactive) | 17 µM (inactive) | 20.2 µM (inactive) | 22.4 µM (inactive) | 17 µM (inactive) | 19.1 µM (inactive) | 16.7 µM (inactive) | 16.9 µM (inactive) | 13.9 µM (inactive) | 34.4 µM (inactive) | 28 µM (inactive)
6 | CCN(CC)C(=S)N/N=C/c1cc(OC)ccc1O | 2.46 µM (inactive) | 4.86 µM (inactive) | 69.8 µM (inactive) | 5.86 µM (inactive) | 8.91 µM (inactive) | 7.28 µM (inactive) | 3.86 µM (inactive) | 2.1 µM (inactive) | 1.36 | 7.31 µM (inactive) | 3.84 µM (inactive) | 3.69 µM (inactive) | 4.3 µM (inactive) | 4.11 µM (inactive) | 2.75 µM (inactive) | 4.52 µM (inactive) | 9.04 µM (inactive) | 0.895 µM (active) | 2.58 µM (inactive) | 7.98 µM (inactive)
7 | O=C1CC2SC(COCc3ccccc3)(CCN2Cc2ccccc2)C1 (stereo not given) | 18 µM (inactive) | 44.2 µM (inactive) | > 100 µM (inactive) | > 100 µM (inactive) | > 100 µM (inactive) | 54.6 µM (inactive) | 39.1 µM (inactive) | > 100 µM (inactive) | 40.6 | 37.1 µM (inactive) | 31 µM (inactive) | 49.1 µM (inactive) | 19.9 µM (inactive) | 61.2 µM (inactive) | > 100 µM (inactive) | 38.1 µM (inactive) | > 100 µM (inactive) | 65 µM (inactive) | 65 µM (inactive) | 43.9 µM (inactive)
8 | O=C(O)C1=CN(c2ccncc2)C(c2ccco2)=CC1c1ccccc1[N+](=O)[O-] (stereo not given) | 3.19 µM (inactive) | 1.96 µM (inactive) | 14.4 µM (inactive) | 13.5 µM (inactive) | 12.5 µM (inactive) | 10.6 µM (inactive) | 16.6 µM (inactive) | 7 µM (inactive) | 2.05 | 2.31 µM (inactive) | 2.99 µM (inactive) | 10.7 µM (inactive) | 6.17 µM (inactive) | 12.8 µM (inactive) | 2.16 µM (inactive) | 2.58 µM (inactive) | 6.31 µM (inactive) | 2.69 µM (inactive) | 22.9 µM (inactive) | 14.5 µM (inactive)
9 | COC(=O)C(Cc1ccccc1)NC(=O)C(CCC(=O)OCc1ccccc1)NC(=O)OC(C)(C)C (stereo not given) | 54.8 µM (inactive) | 44.4 µM (inactive) | > 100 µM (inactive) | > 100 µM (inactive) | > 100 µM (inactive) | > 100 µM (inactive) | > 100 µM (inactive) | 50.2 µM (inactive) | 85.5 | > 100 µM (inactive) | 82.8 µM (inactive) | > 100 µM (inactive) | > 100 µM (inactive) | > 100 µM (inactive) | > 100 µM (inactive) | 26.9 µM (inactive) | > 100 µM (inactive) | 64.9 µM (inactive) | > 100 µM (inactive) | > 100 µM (inactive)
10 | CN(c1ccccc1Cl)S(=O)(=O)c1ccc([N+](=O)[O-])cc1 | > 100 µM (inactive) | > 100 µM (inactive) | > 100 µM (inactive) | > 100 µM (inactive) | > 100 µM (inactive) | > 100 µM (inactive) | > 100 µM (inactive) | > 100 µM (inactive) | > 100 | > 100 µM (inactive) | > 100 µM (inactive) | > 100 µM (inactive) | > 100 µM (inactive) | > 100 µM (inactive) | > 100 µM (inactive) | > 100 µM (inactive) | > 100 µM (inactive) | > 100 µM (inactive) | > 100 µM (inactive) | > 100 µM (inactive)
11 | COc1ccc2c(c1)[C@@]13CCCC[C@H]1[C@@H](C2)N(C)CC3=O | 8.04 µM (inactive) | 16.2 µM (inactive) | 19.2 µM (inactive) | 21.8 µM (inactive) | 76.9 µM (inactive) | 17.5 µM (inactive) | 17.3 µM (inactive) | 17.4 µM (inactive) | 17.8 | 16.5 µM (inactive) | 18.3 µM (inactive) | 16.1 µM (inactive) | 19 µM (inactive) | 64.9 µM (inactive) | 17.9 µM (inactive) | 28 µM (inactive) | 15.3 µM (inactive) | 19.2 µM (inactive) | 26.9 µM (inactive) | 17.5 µM (inactive)
12 | CC(C)C(=O)CC(Sc1ccc(N)cc1)c1ccccc1 (stereo not given) | 16.2 µM (inactive) | 13.3 µM (inactive) | 21.7 µM (inactive) | 25.4 µM (inactive) | 48.5 µM (inactive) | 21.9 µM (inactive) | 33.2 µM (inactive) | 27.6 µM (inactive) | 27.4 | 33.6 µM (inactive) | 18.2 µM (inactive) | 30.4 µM (inactive) | 69.8 µM (inactive) | 25.6 µM (inactive) | 28.8 µM (inactive) | 25.4 µM (inactive) | 25.9 µM (inactive) | 17.1 µM (inactive) | 33.7 µM (inactive) | 21.9 µM (inactive)
13 | Clc1cc2nc(C3CCCCO3)[nH]c2cc1Cl (stereo not given) | 4.78 µM (inactive) | 13.7 µM (inactive) | 7.29 µM (inactive) | 48.6 µM (inactive) | 39.7 µM (inactive) | 14.3 µM (inactive) | 26 µM (inactive) | 5.09 µM (inactive) | 6.98 | 59.2 µM (inactive) | 3.48 µM (inactive) | 28.5 µM (inactive) | > 77.3 µM (inactive) | 38.6 µM (inactive) | 34 µM (inactive) | 6.47 µM (inactive) | 8.17 µM (inactive) | 35.3 µM (inactive) | 12.1 µM (inactive) | 18 µM (inactive)
14 | CCCNC1=Nc2ccccc2[C@@H]2N(C)c3ccccc3C(C)C[C@]12C (stereo not given in full) | 33.3 µM (inactive) | 14.8 µM (inactive) | 19.1 µM (inactive) | 32.4 µM (inactive) | 18.6 µM (inactive) | 20 µM (inactive) | 17.9 µM (inactive) | 19.2 µM (inactive) | 23.6 | 12.9 µM (inactive) | 21.3 µM (inactive) | 17.7 µM (inactive) | 16 µM (inactive) | 16.3 µM (inactive) | 18.5 µM (inactive) | 20 µM (inactive) | 19.7 µM (inactive) | 26 µM (inactive) | 22.4 µM (inactive) | 18.2 µM (inactive)
